Values of other authors, collected in patent publication US20240156798A1, “ANTIOXIDANT COMPOSITIONS AND METHODS OF USE” (Sanare Pharmaceuticals, priority 2022, published 2024).
“Also recorded” adds a separate entry of the source. Read-outs that look alike come from different tables or passages of the source.

Legend:
ocular damage [1] = details: topical application, rat
[2] = tested on: radiation induced alopecia; details: topical, human clinical trials
[3] = tested on: high fat diet induced NAFLD; details: for high fat diet induced NAFLD: mice fed a high fat diet
[4] = tested on: experimentally induced glaucoma; details: C57BL/6J mice
ocular damage [5] = details: topical application, rhesus monkey
[6] = hundreds of animal models
[7] = tested on: chemically induced colitis; details: in vivo
IBD = details: 168 patients, double blind, placebo-controlled
[8] = tested on: normal tension glaucoma (NTG)
[9] = tested on: photo-induced retinal degeneration; details: intraperitoneal injection
[10] = tested on: human retinal pigment epithelium (RPE)
dry eye = details: eye drop administration
[11] = tested on: acetic acid-induced experimental colitis; details: NAC 100 mg/kg for seven days
retinal degeneration = details: several models of neurodegeneration and damage, including retinal degeneration
U.C. = U.C. patients, open label
[12] = tested on: retinal ganglion cell (RCG) death after optic nerve crush
ocular alkali burn = details: in vivo
[13] = RPE from both positive and negative AMD donors
[14] = systemic treatment, following optic nerve crush

4-hydroxy-2,2,6,6-tetramethylpiperidin-1-oxyl [TEMPOL]
ocular damage (ocular damage [1]): decrease | radiation induced alopecia [2]: protect | high fat diet induced NAFLD [3]: Can treat and prevent NAFLD in mice | neuro-inflammation in the ocular hypertensive retina and optic nerve [4]: decreased | ocular damage (ocular damage [5]): decrease | Glutathione S-Transferase (GST) gene(s) expression (gene expression): significantly increased | TNFα regulation (gene expression): downregulates | expression levels of keratinocyte growth factor (KGF) gene (gene expression): statistically increased | expression of HIF-1α (gene expression): statistically decreased | expression of HIF-2α (gene expression): statistically decreased | expression of genes encoding for the 26s proteasome complex (gene expression): significantly decreased | expression of the ADIPOQ gene (gene expression): statistically increased | UNC5b (gene expression; cancer cells): significantly increases | safety concerns [6]: No safety concerns | degree of both neutrophil inflammation and lipid peroxidation in the inflamed bowel [7]: Reduction in the degree of both neutrophil

CC(=O)N[C@@H](CS)C(=O)O [NAC, N-acetyl-cysteine]
penetration to the posterior segment (retinitis pigmentosa; applied to the cornea): able to penetrate to the posterior segment | protecting the retina from oxidative damage (retinitis pigmentosa; applied topically to the eye): effective | Phase 2 study result (IBD): Positive results in a Phase 2 | glutathione levels ([8]; EAAC1 KO mice): increased | oxidative stress and autophagy ([8]; EAAC1 KO mice): suppressed | effect on retinal degeneration ([8]; mouse model of NTG): protective effect | decline of retinal function ([8]; mouse, in vivo): prevented | retinal ganglion cells (RGC), NTG-like neurodegeneration ([8]; mouse, in vivo): protected | glucose tolerance ([3]; HFD mice): improved | morphology of hepatic tissue ([3]; HFD mice): totally restored | hepatic steatosis and metabolic disturbances ([3]; mice fed high fat diets (HFD), compared to normally fed mice): significantly reduced | oxidation and ER stresses [9]: suppressed | ROS accumulation in the retina ([9]; Balb/c mouse): inhibiting | basal GSH content ([10]; AMD RPE): increase | basal ROS ([10]; AMD RPE): reduction | GSH depletion ([10]; H2O2, RPE from both positive and negative AMD donors): preventing | H2O2 induced cell death [10, 13]: preventing | excessive ROS accumulation [10, 13]: blocking | basal mitochondrial function (ATP) ([10]; both groups of cells): improved | effect on primary cultures of human RPE ([10]; patients with AMD): positive (protective) effect | levels of ROS and inflammasome signaling (dry eye): diminished | chemically induced colitis [7]: Protects against chemically induced | macroscopic and histological findings [11]: protective role | GSH concentration ([11]; compared to vehicle controls): restoration | NO concentration ([11]; compared to vehicle controls): restoration | colon tissue MPO activity ([11]; compared to vehicle controls): significant decrease

C[C@H](CCC(=O)NCCS(=O)(=O)O)[C@H]1CC[C@H]2[C@@H]3[C@@H](O)C[C@@H]4C[C@H](O)CC[C@]4(C)[C@H]3CC[C@]12C [TUDCA, tauroursodeoxycholic acid]
apoptosis following cellular injury (retinal degeneration): block | Phase 1 study testing efficacy and safety (U.C.): Positive results in an open label Phase 1; also recorded: Positive results in Phase 1 study testing | progression of HFD induced NALFD ([3]; TUDCA alone, mice): attenuate | high fat diet induced NAFLD [3]: markedly reduces | gut inflammation ([3]; mouse, in vivo): attenuates; also recorded: ameliorating | intestinal barrier function ([3]; mouse, in vivo): improves; also recorded: improving | intestinal fat transport ([3]; mouse, in vivo): decreases; also recorded: decreasing | intestinal microbiota composition ([3]; mouse, in vivo): modulates; also recorded: modulating | retinal ganglion cells in the optic crush model ([12]; in vivo): Protects retinal ganglia cells in the optic; also recorded: Protects retinal ganglion cells in the optic | RCGs survival [12, 14]: significantly enhanced | apoptosis [12, 14]: suppressed | cornea and retina injury (ocular alkali burn): protect | ocular inflammation (ocular alkali burn): inhibit | chemically induced colitis [7]: Active against chemically induced colitis
